Measured values: patent US20250340552A1, “COMPOUNDS, COMPOSITIONS AND METHODS OF TREATING DISORDERS” (HOTSPOT THERAPEUTICS, INC., priority 2022, published 2025)
Like-named read-outs stand apart in the source and are kept apart here.

Target: T1, Cbl-B (Homo sapiens, UniProt Q13191)
T1 construct: MSD-Based Assay for Degradation of Cbl-B in THP-1 Cells; endogenous in cells; host or cells: THP-1 (title) / Jurkat (protocol text)
Test: MSD-based assay for degradation of Cbl-B in THP-1 cells
Type: cell-based
Outline: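 THP-1 cells were treated with compound for 24 h at 37 °C. Cbl-B in lysates was quantified by MSD sandwich immunoassay, with anti-Cbl-B capture antibody at 1 ug/mL and SULFO-TAG anti-rabbit detection. Maximal degradation (Dmax) was binned as A >70%, B 50–70%, C 30–50%, D <30%.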

[1] = Cbl-B degradation, Jurkat cells seeded (heading: THP-1 cells), 24 hours incubation, MSD readout
[2] = Cbl-B degradation, Jurkat cells seeded (heading: THP-1 cells), 24 hours incubation, MSD readout, read-out: Dmax

T1 sequence (Q13191 whole entry): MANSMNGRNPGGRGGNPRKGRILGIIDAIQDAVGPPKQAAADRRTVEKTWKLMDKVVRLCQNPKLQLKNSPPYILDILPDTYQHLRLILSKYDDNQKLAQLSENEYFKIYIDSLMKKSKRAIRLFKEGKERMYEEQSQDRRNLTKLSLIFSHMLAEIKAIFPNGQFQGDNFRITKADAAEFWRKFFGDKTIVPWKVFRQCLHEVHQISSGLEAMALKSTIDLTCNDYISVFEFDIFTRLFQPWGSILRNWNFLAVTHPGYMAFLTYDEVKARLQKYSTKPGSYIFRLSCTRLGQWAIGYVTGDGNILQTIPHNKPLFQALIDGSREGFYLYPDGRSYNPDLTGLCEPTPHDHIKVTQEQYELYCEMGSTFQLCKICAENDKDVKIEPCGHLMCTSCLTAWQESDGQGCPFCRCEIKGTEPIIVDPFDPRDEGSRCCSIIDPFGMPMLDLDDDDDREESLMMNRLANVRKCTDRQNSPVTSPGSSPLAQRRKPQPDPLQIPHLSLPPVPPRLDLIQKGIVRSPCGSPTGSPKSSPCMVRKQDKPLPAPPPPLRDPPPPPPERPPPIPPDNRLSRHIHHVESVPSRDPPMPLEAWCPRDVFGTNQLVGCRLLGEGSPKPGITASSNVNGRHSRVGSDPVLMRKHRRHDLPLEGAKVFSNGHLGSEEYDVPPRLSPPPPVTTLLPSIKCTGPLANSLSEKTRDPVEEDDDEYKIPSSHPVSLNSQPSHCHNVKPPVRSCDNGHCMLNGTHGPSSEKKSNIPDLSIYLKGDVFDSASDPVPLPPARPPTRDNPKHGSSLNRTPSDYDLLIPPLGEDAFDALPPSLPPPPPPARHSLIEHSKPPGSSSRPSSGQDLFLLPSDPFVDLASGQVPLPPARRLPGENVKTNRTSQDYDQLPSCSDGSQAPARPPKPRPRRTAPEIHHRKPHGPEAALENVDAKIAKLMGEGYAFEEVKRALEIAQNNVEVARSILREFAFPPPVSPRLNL

DC50 [1] [µM] | Dmax [2] [%] | Structure (SMILES) | Dmax (THP-1) [%]
> 10 | < 30 | Cn1cnnc1[C@@H](c1cccc(N2Cc3c(cc(CN4CCC[C@@H](OCc5ccc(CC6CCN(c7ccc8c(c7)CN([C@@H]7CCC(=O)NC7=O)C8=O)CC6)cc5)C4)cc3C(F)(F)F)C2=O)c1)C1CCC1 (single isomer, unassigned) [Compound 193] | 
< 0.03 | > 70 | Cn1cnnc1[C@@H](c1cccc(-n2cc3c(C(F)(F)F)cc(CN4CCC[C@H](OC5CCN(C(=O)c6ccc(N7CCN(c8ccc9c(c8)CN([C@H]8CCC(=O)NC8=O)C9=O)CC7)cc6)CC5)C4)cn3c2=O)c1)C1CCC1 (single isomer, unassigned) [Compound 196] | 
> 10 | < 30 | CN(CCN(C)C(=O)c1cc(C(F)(F)F)c2cn(-c3cccc([C@H](c4nncn4C)C4CCC4)c3)c(=O)n2c1)C(=O)c1ccc(C2CCN(c3ccc4c(c3)CN([C@@H]3CCC(=O)NC3=O)C4=O)CC2)cc1 (single isomer, unassigned) [Compound 197] | 
< 0.03 | > 70 | Cn1cnnc1[C@@H](c1cccc(-n2cc3c(C(F)(F)F)cc(CN4CCN(C(=O)Cc5ccc(C6CCN(c7ccc8c(c7)CN([C@H]7CCC(=O)NC7=O)C8=O)CC6)cc5)CC4)cn3c2=O)c1)C1CCC1 (single isomer, unassigned) [Compound 202] | 
0.03 to 0.3 | 50 to 70 | Cn1cnnc1CC1(c2cccc(-n3cc4c(C(F)(F)F)cc(CN5CCC(OCc6ccc(C7CCN(c8ccc9c(c8)CN([C@H]8CCC(=O)NC8=O)C9=O)CC7)cc6)CC5)cn4c3=O)c2)COC1 (single isomer, unassigned) [Compound 206] | 
1 to 10 | < 30 | Cn1cnnc1[C@@H](c1cccc(-n2cc3c(C(F)(F)F)cc(CN4CCN(c5ccc(C(=O)N6CCC(C7CCN(c8ccc9c(c8)CN([C@@H]8CCC(=O)NC8=O)C9=O)CC7)CC6)cc5)CC4)cn3c2=O)c1)C1CCC1 (single isomer, unassigned) [Compound 209] | 
< 0.03 | > 70 | Cn1cnnc1[C@@H](c1cccc(-n2cc3c(C(F)(F)F)cc(CN4CCN(c5ccc(C(=O)N6CCC(C7CCN(c8ccc9c(c8)CN([C@H]8CCC(=O)NC8=O)C9=O)CC7)CC6)cc5)CC4)cn3c2=O)c1)C1CCC1 (single isomer, unassigned) [Compound 210] | 
> 10 | < 30 | CN(CCN(C)C(=O)c1ccc(C2CCN(c3ccc4c(c3)CN([C@@H]3CCC(=O)NC3=O)C4=O)CC2)cc1)Cc1cc(C(F)(F)F)c2cn(-c3cccc([C@H](c4nncn4C)C4CCC4)c3)c(=O)n2c1 (single isomer, unassigned) [Compound 211] | 
> 10 | < 30 | Cn1cnnc1[C@@H](c1cccc(-n2cc3c(C(F)(F)F)cc(CN4CCC(OCc5ccc(C6CCN(c7ccc8c(c7)CN([C@@H]7CCC(=O)NC7=O)C8=O)CC6)cc5)CC4)cn3c2=O)c1)C1CCC1 (single isomer, unassigned) [Compound 213] | 
0.3 to 1 | 30 to 50 | Cn1cnnc1[C@@H](c1cccc(-n2cc3c(C(F)(F)F)cc(CN4CCC(OCc5ccc(CC6CCN(c7ccc8c(c7)CN([C@@H]7CCC(=O)NC7=O)C8=O)CC6)cc5)CC4)cn3c2=O)c1)C1CCC1 (single isomer, unassigned) [Compound 217] | 
0.03 to 0.3 | 50 to 70 | Cn1cnnc1CC1(c2cccc(-n3cc4c(C(F)(F)F)cc(CN5CCC(OCCOCc6ccc(CN7CCN(c8ccc9c(c8)CN([C@@H]8CCC(=O)NC8=O)C9=O)CC7)cc6)CC5)cn4c3=O)c2)COC1 (single isomer, unassigned) [Compound 219] | 
0.03 to 0.3 | > 70 | Cn1cnnc1[C@@H](c1cccc(-n2cc3c(C(F)(F)F)cc(CN4CCC(O[C@@H]5CCCN(C(=O)c6ccc(N7CCN(c8ccc9c(c8)CN([C@H]8CCC(=O)NC8=O)C9=O)CC7)cc6)C5)CC4)cn3c2=O)c1)C1CCC1 (single isomer, unassigned) [Compound 226] | 

More lines, now with the values behind:

Structure (SMILES) | DC50 [1] [µM] | Dmax [2] [%] | Dmax (THP-1) [%]
Cn1cnnc1[C@@H](c1cccc(N2Cc3c(cc(CN4CCC[C@@H](OCc5ccc(CC6CCN(c7ccc8c(c7)CN([C@H]7CCC(=O)NC7=O)C8=O)CC6)cc5)C4)cc3C(F)(F)F)C2=O)c1)C1CCC1 (single isomer, unassigned) [Compound 194] | 0.03 to 0.3 | 30 to 50 | 
Cn1cnnc1[C@@H](c1cccc(-n2cc3c(C(F)(F)F)cc(CN4CCC[C@H](OC5CCN(C(=O)c6ccc(N7CCN(c8ccc9c(c8)CN([C@@H]8CCC(=O)NC8=O)C9=O)CC7)cc6)CC5)C4)cn3c2=O)c1)C1CCC1 (single isomer, unassigned) [Compound 195] | 0.03 to 0.3 | 50 to 70 | 
CN(CCN(C)C(=O)c1cc(C(F)(F)F)c2cn(-c3cccc([C@H](c4nncn4C)C4CCC4)c3)c(=O)n2c1)C(=O)c1ccc(C2CCN(c3ccc4c(c3)CN([C@H]3CCC(=O)NC3=O)C4=O)CC2)cc1 (single isomer, unassigned) [Compound 198] | > 10 | < 30 | 
CN(CC1CCN(Cc2cc(C(F)(F)F)c3cn(-c4cccc([C@H](c5nncn5C)C5CCC5)c4)c(=O)n3c2)CC1)C(=O)c1ccc(C2CCN(c3ccc4c(c3)CN([C@@H]3CCC(=O)NC3=O)C4=O)CC2)cc1 (single isomer, unassigned) [Compound 199] | 0.03 to 0.3 | 30 to 50 | 
CN(CC1CCN(Cc2cc(C(F)(F)F)c3cn(-c4cccc([C@H](c5nncn5C)C5CCC5)c4)c(=O)n3c2)CC1)C(=O)c1ccc(C2CCN(c3ccc4c(c3)CN([C@H]3CCC(=O)NC3=O)C4=O)CC2)cc1 (single isomer, unassigned) [Compound 200] | < 0.03 | > 70 | 
Cn1cnnc1[C@@H](c1cccc(-n2cc3c(C(F)(F)F)cc(CN4CCN(C(=O)Cc5ccc(C6CCN(c7ccc8c(c7)CN([C@@H]7CCC(=O)NC7=O)C8=O)CC6)cc5)CC4)cn3c2=O)c1)C1CCC1 (single isomer, unassigned) [Compound 201] | 0.03 to 0.3 | 30 to 50 | 
Cn1cnnc1CC1(c2cccc(-n3cc4c(C(F)(F)F)cc(CN5CCC(OCc6ccc(C7CCN(c8ccc9c(c8)CN([C@@H]8CCC(=O)NC8=O)C9=O)CC7)cc6)CC5)cn4c3=O)c2)COC1 (single isomer, unassigned) [Compound 205] | 0.03 to 0.3 | 30 to 50 | 
Cn1cnnc1[C@@H](c1cccc(-n2cc3c(C(F)(F)F)cc(CN4CCC(OCc5cccc(CN6CCN(c7ccc8c(c7)CN([C@@H]7CCC(=O)NC7=O)C8=O)CC6)c5)CC4)cn3c2=O)c1)C1CCC1 (single isomer, unassigned) [Compound 207] | > 10 | < 30 | 
Cn1cnnc1[C@@H](c1cccc(-n2cc3c(C(F)(F)F)cc(CN4CCC(OCc5cccc(CN6CCN(c7ccc8c(c7)CN([C@H]7CCC(=O)NC7=O)C8=O)CC6)c5)CC4)cn3c2=O)c1)C1CCC1 (single isomer, unassigned) [Compound 208] | > 10 | < 30 | 
CN(CCN(C)C(=O)c1ccc(C2CCN(c3ccc4c(c3)CN([C@H]3CCC(=O)NC3=O)C4=O)CC2)cc1)Cc1cc(C(F)(F)F)c2cn(-c3cccc([C@H](c4nncn4C)C4CCC4)c3)c(=O)n2c1 (single isomer, unassigned) [Compound 212] | > 10 | < 30 | 
Cn1cnnc1[C@@H](c1cccc(-n2cc3c(C(F)(F)F)cc(CN4CCC(OCc5ccc(C6CCN(c7ccc8c(c7)CN([C@H]7CCC(=O)NC7=O)C8=O)CC6)cc5)CC4)cn3c2=O)c1)C1CCC1 (single isomer, unassigned) [Compound 214] | 0.03 to 0.3 | 30 to 50 | 
Cn1cnnc1[C@@H](c1cccc(-n2cc3c(C(F)(F)F)cc(CN4CCC(OCc5ccc(CC6CCN(c7ccc8c(c7)CN([C@H]7CCC(=O)NC7=O)C8=O)CC6)cc5)CC4)cn3c2=O)c1)C1CCC1 (single isomer, unassigned) [Compound 218] | < 0.03 | > 70 | 
Cn1cnnc1CC1(c2cccc(-n3cc4c(C(F)(F)F)cc(CN5CCC(OCCOCc6ccc(CN7CCN(c8ccc9c(c8)CN([C@H]8CCC(=O)NC8=O)C9=O)CC7)cc6)CC5)cn4c3=O)c2)COC1 (single isomer, unassigned) [Compound 220] | < 0.03 | > 70 | 
Cn1cnnc1[C@@H](c1cccc(-n2cc3c(C(F)(F)F)cc(CN4CCC(O[C@@H]5CCCN(C(=O)c6ccc(N7CCN(c8ccc9c(c8)CN([C@@H]8CCC(=O)NC8=O)C9=O)CC7)cc6)C5)CC4)cn3c2=O)c1)C1CCC1 (single isomer, unassigned) [Compound 225] | 1 to 10 | 30 to 50 | 
Cn1cnnc1[C@@H](c1cccc(-n2cc3c(C(F)(F)F)cc(CN4CCN(CCc5ccc(C6CCN(c7ccc8c(c7)CN([C@H]7CCC(=O)NC7=O)C8=O)CC6)cc5)CC4)cn3c2=O)c1)C1CCC1 (single isomer, unassigned) [Compound 228] | < 0.03 | > 70 | 
CO[C@H]1C[C@](c2cccc(-n3cc4c(C(F)(F)F)cc(CN5CCC(OCc6ccc(CN7CCN(c8ccc9c(c8)CN([C@@H]8CCC(=O)NC8=O)C9=O)CC7)cc6)CC5)cn4c3=O)c2)(c2nncn2C)C1 (single isomer, unassigned) [Compound 231] | 0.3 to 1 | 30 to 50 | 
CO[C@H]1C[C@](c2cccc(-n3cc4c(C(F)(F)F)cc(CN5CCC(OCc6ccc(CN7CCN(c8ccc9c(c8)CN([C@H]8CCC(=O)NC8=O)C9=O)CC7)cc6)CC5)cn4c3=O)c2)(c2nncn2C)C1 (single isomer, unassigned) [Compound 232] | < 0.03 | > 70 | 
Cn1cnnc1[C@@H](c1cccc(-n2cc3c(C(F)(F)F)cc(CN4CCC[C@@H](COCc5ccc(CN6CCN(c7ccc8c(c7)CN([C@H]7CCC(=O)NC7=O)C8=O)CC6)cc5)C4)cn3c2=O)c1)C1CCC1 (single isomer, unassigned) [Compound 234] |  |  | > 70
